Results on 1 compound are retold here after US9951366B2, “Cell-free protein synthesis method and device using a eukaryotic cell lysate in the presence of a caspase inhibitor and the use of a caspase inhibitor for increasing the yield and/or the stability of the synthesized proteins in such a method” (Fraunhofer-Gesellschaft zur Foerderung der angewandten …, priority 2013, dated 2018).

Each structure is given as a SMILES string. Peptide text beside a SMILES is read from it. * marks the point of attachment. Cbz = O=C(OCc1ccccc1)*; CH2F = FC*

The subject of test [1] is cell-free eukaryotic translation system on the basis of a cell extract from Spodoptera frugiperda (Sf21) insect cells. Put plainly: Cell-free expression of Mel-Hb-EGF-eYFP, protein quantity in translation mixture and vesicular fraction. It counts as biochemical. On the procedure: The three proteins were each expressed in the batch and dialysis systems without (−) and with (+) the addition of the caspase inhibitor (CI) in the presence of ^14C-leucine for 48 h (27° C.; 600 rpm, Eppendorf Thermomixer Comfort) and analyzed as in example 1. […] The expression of each of the three membrane proteins (ETB, 49.3 kDa; Hb-EGF, 51 kDa; bacteriorhodopsin, 26.9 kDa) was able to be increased in the dialysis system (comparison of the dialysis batches +CI and −CI) with the addition of the caspase inhibitor by approximately 100% (FIG. 2).
Here, the intention was to investigate whether the increase in the total protein quantity is also associated with an increase in the quantity of membrane protein translocated and integrated into the lipid layer of the vesicles. For this purpose, the translation mixtures of Mel-Hg-EGF-eYFP were separated by means of a centrifuging step into the supernatant fluid (SN) and the vesicular fraction (VF). Aliquots (5 μl) of these samples were used for determining the quantity of de novo synthesized protein or were investigated with regard to their fluorescence properties (FIG. 4).
FIG. 4A: The synthesis of Mel-Hb-EGF-eYFP was carried out in the batch (left) and dialysis system (right) in the absence (−) and in the presence (+) of DTT with the addition of the caspase inhibitor (Z-VAD-FMK) over 48 h at 27° C. and 600 rpm. Following the synthesis, the mixtures were separated by means of a centrifuging step into the supernatant fluid (SN) and the vesicular fraction (VF). For analysis of the fluorescence intensity of the samples, aliquots of the fractions (5 μl) were each diluted in 25 μl PBS and 25 μl of this mixture was pipetted to each cavity of the Ibidi slide and measured. Excitation of the samples was carried out at 488 nm with a phosphorimager (Typhoon TRIO+ Imager, GE Healthcare) and the emission measured at 526 nm.

In test [2] the test system is Mel-hEGFR-eYFP in Sf21 insect cell lysates. In words: Stability of de novo synthesized Mel-hEGFR-eYFP in batch mode (SDS-PAGE, autoradiography). It counts as biochemical, Spodoptera frugiperda. Conditions: inhibitor 30 μM. The text has this:
The positive influence of the caspase inhibitor on the stability of cell-free synthesized proteins is shown here on the basis of the expression of the EGF receptor, the protein being a human, high molecular weight transmembrane protein (Epidermal Growth Factor Receptor) with intrinsic tyrosine kinase activity. The coding sequence of the EGF receptor was fused N-terminally with a melittin signal sequence (Mel) and C-terminally with yellow fluorescent protein (eYFP) and cloned into the vector pIX3.0 (Qiagen). The model protein is denoted below as Mel-hEGFR-eYFP (=163 kDa). The melittin signal sequence enables translocation of the membrane protein into the microsomes of the eukaryotic cell extract and subsequently embedding into the membrane of the microsomes. Mel-hEGFR-eYFP has nine potential N-glycosylation sites and therefore, due to the translocation of the target protein, N-glycosylation of the target protein is also enabled in the cell-free system. […] The translation reaction was carried out in the absence and the presence of a caspase inhibitor (Z-VAD-FMK, Promega, 30 μM) and a protease inhibitor mixture (“Complete Protease Inhibitor Cocktail”, Roche), respectively, and stopped at the indicated incubation times (1.5 h, 5 h and 24 h) by freezing the translation reaction in liquid nitrogen. […]

Take `COC(=O)C[C@H](NC(=O)[C@H](C)NC(=O)[C@@H](NC(=O)OCc1ccccc1)C(C)C)C(=O)CF` [Z-VAD-FMK, benzyloxycarbonyl-Val-Ala-Asp-[O-methyl]-fluoromethylketone] (Cbz-Val-Ala-Asp(OMe)-CH2F): the “total protein quantity of Mel-Hb-EGF-eYFP” value in test [1] (batch 48 h +CI) worked out at 12.1 µg/mL; in test [1] (dialysis 48 h +CI), 47.6 µg/mL. The “Mel-Hb-EGF-eYFP in the vesicular fraction of the lysate” value in test [1] (batch 48 h −DTT +CI) was 6.5 µg/mL; in test [1] (dialysis 48 h −DTT +CI) it was 31.4 µg/mL. The “increase in total protein quantity of Mel-Hb-EGF-eYFP” value in test [1] (dialysis 48 h +CI vs batch 48 h +CI) is 300%; in test [1] (dialysis 48 h +CI vs dialysis 48 h −CI) it was 130%. Besides, the “Mel-hEGFR-eYFP integrity in the autoradiograph” value in test [2] (after 24 h incubation time) is given as “detectable in an intact form”. Also, in test [2] (compared with no inhibitor, 5 h), the “proteolytic decomposition of Mel-hEGFR-eYFP (autoradiograph)” value was “reduced signs of a proteolytic decomposition”.
